Columns and labels:
Format in all cases: cell-based, mouse
βTC-6 cells [1] = test: Calcium spiking frequency (Fluo-8) after 810 nm PBM exposure, pharmacologic studies
Description: Cell Culture. […] Cell passage was performed weekly with 0.25% Trypsin-EDTA. Samples were prepared by seeding βTC-6 cells on glass coverslips in low glucose media. These samples were used for experimentation between days 2 through 5. All cells were incubated at 37° C. in a 5% CO2 environment.
(§1) PBM Parameters. A Cytonsys (Austin, TX) 810 nm near-infrared laser was used to perform all experimentation. […] Herein, all βTC-6 samples were exposed to 810 nm for 1 minute with an irradiance of 150 mW/cm^2, resulting in a fluence of 9 J/cm^2. To measure the bulk temperature rise that was due to laser exposure, an Omega HH42A thermistor was used before and after irradiation.
(§2) Live Cell Imaging. For calcium and mitochondrial superoxide (mROS) detection, the cells were stained with Fluo-8 (0.8 μM, Abcam, Cambridge, UK), Mitosox (5 μM, Thermo-Fisher, Waltham, MA) and 1 drop/mL of Nucblue (Thermo-Fisher, Waltham, MA) for detection of intracellular calcium, mROS, and nucleic acid, respectively. The fluorescent dye DAF-FM (5 μM, Thermo-Fisher) was used to detect and measure cytosolic nitric oxide (NO). Hanks balanced salt solution (HBSS) was used (H8264, Sigma, St. Louis, MO) unless stated otherwise. Samples were stained at 37° C. for 30 minutes before being washed and mounted onto the imaging chamber.
Calcium Activity Analysis. Regions of interest (ROIs) were placed on individual cells using the nucleic acid staining and transferred to perform and calculate mean fluorescent intensity over time with background subtraction. Approximately 100 to 200 cells were monitored for each data point, and the results were averaged. A conservative moving average threshold (10 data points) with a 10% cutoff was used to determine a calcium spike. […] The active population was defined by the total number of active cells divided by the number of cells analyzed. The average spiking frequency of these active cells was then determined at each time point. Measurements were taken using Nikon Elements software and data analysis was carried out using Microsoft Excel. […]

βTC-6 insulinoma cells = test: Intracellular calcium rise (Fluo-8) after electric field exposure, blocking experiment; conditions: verapamil 100 μM, incubated 30 minutes before 3 V/cm EF for 15 min, HBSS
Description: Calcium labeling and depletion. Samples were washed with HBSS (Sigma) and incubated with 0.8 μM Fluo-8 (Abcam) for 30 minutes. NucBlue solution (Thermo) was added for 15 min in accordance to the manufacturer's recommended concentration to stain the nuclei. Cells were washed again and mounted onto the chamber. Changes in the Fluo-8 fluorescent intensity were monitored and recorded. Fluorescent images were acquired for 2 min at 5 s intervals with a 250 ms exposure time before and after the DCEF was applied. Image analysis was performed using the Nikon Elements image processor by identifying a ROI selection on selected nuclei with mean intensity of Fluo-8 over time. […]
Calcium Fluorescent Microscopy. […] Measurements for calcium rise recorded a single static image before and after EF exposure, while calcium spiking was recorded over 2 minutes before and after EFS with a 5 second sampling interval.
Calcium Image Analysis. For calcium rise, the mean intensity of clusters in the sample were measured at 0 minute (Pre) and 15 minute (Post) time points using Nikon Elements. Background subtraction was then performed and the percent change was determined by comparing the post-exposure to the pre-exposure mean intensities. […] The mean intensity over time was measured for both the pre and post imaging sessions. […]

βTC-6 cells [2] = test: Mitochondrial superoxide (MitoSOX intensity) after 810 nm PBM exposure; conditions: ascorbic acid 2.5 mM, 9 J/cm^2
Description: as §1, with “experimentation. […] The energy density of 9 J/cm^2 was previously shown to have therapeutic effects on hepatic tissue in a diabetic state.” for “experimentation.”
as §2
Pharmacologic Studies. All drugs were added to the staining buffer. Samples were treated with each drug for 30 minutes before imaging. For L-type VGCC blocking, Verapamil (100 μM, V4629, Sigma) was applied. Capsazepine (10 μM, C191, Sigma) was added as a TRPV1 antagonist. […]

## NCCOB(c1ccccc1)c1ccccc1 [2-APB]
βTC-6 cells [1]; 2-APB 10 μM (FIG. 10B legend 20 μM), 30 minutes, 9 J/cm^2
  calcium spiking frequency following PBM: significantly impede such an increase in the calcium spiking frequency by PBM

## COc1ccc(CCN(C)CCCC(C#N)(c2ccc(OC)c(OC)c2)C(C)C)cc1OC (centres unmarked) [Verapamil]
βTC-6 insulinoma cells
  increase in intracellular calcium level in response to EF: effectively blocked the increase in intracellular calcium level

## O=C1O[C@H]([C@@H](O)CO)C(O)=C1O [ascorbic acid, Ascorbic Acid]
βTC-6 cells [2]
  MitoSOX intensity following PBM (superoxide): significant reduction in the MitoSOX intensity
βTC-6 cells [1]; ascorbic acid 2.5 mM, 9 J/cm^2
  calcium spiking frequency of active cells following PBM, AA-treated versus control: no significant difference in the calcium spiking frequency analysis between the AA-treated and control cells until the 10-minute time point

## O=C1CN(/N=C/c2ccc(-c3ccc([N+](=O)[O-])cc3)o2)C(O)=N1 [dantrolene, Dantrolene]
βTC-6 cells [1]; dantrolene 50 μM, 30 minutes, 9 J/cm^2, difference only noticeable at the 15-minute mark
  calcium spiking frequency following PBM, versus control: decreased in comparison to the control

Source: patent US11834640B2, “Device and uses thereof for treating diabetes” (Board of Regents, The University of Texas System, priority 2019, dated 2023)
